ChEMBL document CHEMBL1128125, “Inhibitors of Acyl-CoA:Cholesterol O-acyltransferase (ACAT) as hypocholesterolemic agents 14. synthesis and structure-activity relationships of a novel series of sulfonamide tetrazoles” (Bioorg Med Chem Lett, 1995)

Legend:
Rattus norvegicus [1] = test: Tested in vivo for its effect on changing plasma cholesterol level in rats at a dose of 30 mg/kg; type: functional
[2] = Inhibition of Acyl coenzyme A:cholesterol acyltransferase (ACAT); design: species or system Oryctolagus cuniculus
Rattus norvegicus [3] = test: Tested in vivo for its effect on changing plasma cholesterol level in rats at a dose of 3 mg/kg; type: functional

| IC50 [2] [nM] | Compound | Delta TC (Rattus norvegicus [1]) [%] | Delta TC (Rattus norvegicus [3]) [%] |
| --- | --- | --- | --- |
| 57 | CCCCCCCCCCCCn1nnc(C(Cc2ccccc2)S(=O)(=O)Nc2c(C(C)C)cccc2C(C)C)n1 (stereo unspecified) | -27 |  |
| 22 | CCCCCCCCCCCCn1nnc(CS(=O)(=O)Nc2c(C(C)C)cccc2C(C)C)n1 | -67 | -59 |
| 180 | CCCCCCCCCCCCn1nnc(CS(=O)(=O)Nc2c(OC)cc(OC)cc2OC)n1 | -60 |  |
| 7600 | CCCCCCCCCCCCCCCCCCn1nnc(CS(=O)(=O)Nc2c(C(C)C)cccc2C(C)C)n1 | -31 |  |
| 3700 | CCCCCCCCCCCCn1nnnc1CS(=O)(=O)Nc1c(OC)cc(OC)cc1OC | -30 |  |
| 52 | CCCCCCCCCCCCCCCCCC(=O)Nc1c(OC)cc(OC)cc1OC | -11 | -31 |
| 750 | CCCCCCCCn1nnc(CS(=O)(=O)Nc2c(C(C)C)cccc2C(C)C)n1 | -14 |  |
| 600 | CCCCCCCCCCCCCCCCn1nnc(CS(=O)(=O)Nc2c(C(C)C)cccc2C(C)C)n1 | -20 |  |
| 40 | CCCCCCCCCCCCn1nnc(C(C)(C)S(=O)(=O)Nc2c(C(C)C)cccc2C(C)C)n1 | -53 |  |
| 32 | CCCCCCCCCCCCn1nnc(C(C)S(=O)(=O)Nc2c(C(C)C)cccc2C(C)C)n1 (stereo unspecified) | -67 |  |
| 150 | CCCCCCCCCCCCCCn1nnc(CS(=O)(=O)Nc2c(C(C)C)cccc2C(C)C)n1 | -42 |  |
| 2.6 | CCCCCCCCCCCCn1nnc(CC(=O)Nc2c(C(C)C)cccc2C(C)C)n1 | -64 | -62 |
| 1200 | CCCCCCCCCCCCn1nnnc1CS(=O)(=O)Nc1c(C(C)C)cccc1C(C)C | -41 |  |
| 690 | CCCCCCCCCCCCCCCCS(=O)(=O)Nc1c(OC)cc(OC)cc1OC |  | -31 |
